Like-named read-outs stand apart in the source and are kept apart here. Residues, ends and D or L forms follow the SMILES beside them.
Assays:
Assay type in all cases: cell-based
[1] = test system: Meth A murine sarcoma cell line
Experimental: Peptide solutions (0.1 ml) were added and the plates incubated at 37° C. for 30 minutes, 4 hours or 24 hours. The cytotoxicity was measured using the MTT method (Mosmann et al., J. Immunol. (1986) 136, 2348-2357).

[2] = test system: MRC-5 cells (normal fibroblasts); experiment: Fibroblast assay (MTT)
Experimental: The cells were washed with PBS and then trypsinated using 2 ml trypsin (for a 80 cm culture flask). After the cells had detached from the wall, usually after ca 3 min. of incubation, 5 ml medium with FBS were added. The cells were resuspended and counted. The cells were then transferred to a centrifugation tube and spinned at 1500 rpm for 10 min. The supernatant was removed and the cells resuspended to a concentration of 1×10^5 cells/ml. 100 ul cells suspension was transferred to each well in a 96-well microtiter plate and incubated for 25 hours to allow the cells to attach. Following the incubation, the medium containing serum was removed by turning the plate upside down against a piece of tissue. 100 ul medium without serum and L-glutamine (assay medium) was added to each well, and then removed as before. This was done to remove any trace of serum. […] The rest of the assay was done as previously described for methA, except that after the 2 hour incubation following MTT addition, 80 ul medium instead of 130 ul were removed.

human red blood cells = experiment: Hemolytic assay
Experimental: The hemolytic activities of the peptides were determined using fresh human red blood cells. 8 ml blood was taken from a healthy person. 4 ml blood was transferred to a polycarbonate tube containing heparin to a final concentration of 10 U/ml, and the remaining 4 ml blood was transferred to a glass tube containing EDTA with final concentration of 15% EDTA. The erythrocytes were isolated from heparin-treated blood by centrifugation in 1500 rpm for 10 min and washed three times with phosphate-buffered saline (PBS) to remove plasma and buffy coat. The cell pellet was resuspended in PBS to make the final volume of 4 ml. The peptide was diluted to a concentration of 2 mg/ml and 0.1 mg/ml. The peptide was further diluted to the concentrations as stated in Table 1. For each tube PBS was added first, then RBCs and peptide solutions. The hematocrit in the blood treated with EDTA was determined after 30 min with Sysmex K-1000, and the resuspended RBCs were diluted into 10% hematocrit. RBCs in PBS (1%) with and without peptides (Table 18) were incubated in a shaker at […] for 1 hour and then centrifuged at 4000 rpm for 5 min. The supernatant were carefully transferred to new polycarbonate tubes and the absorbance of the supernatant was measured at 540 nm. Baseline hemolysis was hemoglobin released in the presence of PBS, and 100% hemolysis was hemoglobin released in the presence of 0.1% Triton X-100.

[3] = test system: Staphylococcus aureus ATCC 25923
Experimental: (§1) The bacterial strains used were: Escherichia coli ATCC 25922 and Staphylococcus aureus ATCC 25923. All strains were stored at −70° C. The bacteria were grown in 2% Bacto Peptone water (Difco 1807-17-4). All tests were performed with bacteria in mid-logarithmic growth phase. Determination of the minimum inhibitory concentration (MIC) of the peptides for bacterial strains were performed in 1% Bacto Peptone water. A standard microdilution technique with an inoculum of 2×10^6 CFU/ml was used. All assays were performed in triplets. Since the peptides are positively charged and therefore could adhere to the plastic wells, we controlled the actual concentration of the peptides in the solution by HPLC. There was no difference between the concentration of the peptides before or after adding the solution to the plastic wells.

[4] = test system: Escherichia coli ATCC 25922
Experimental: as §1

[5] = Table 3, unit inferred, read-out: Meth A IC50
[6] = Table 3, unit inferred, read-out: Fib IC50
[7] = Table 3, unit inferred, read-out: RBC EC50

Compound | IC50 [1, 5] [µM] | IC50 [2, 6] [µM] | EC50 (human red blood cells; [7]) [µM] | other results
C[C@H](NC(=O)[C@H](C)NC(=O)[C@H](CCCCN)NC(=O)[C@H](Cc1c[nH]c2ccccc12)NC(=O)[C@H](C)NC(=O)[C@H](CCCCN)NC(=O)[C@H](CCCCN)NC(=O)[C@H](C)NC(=O)[C@H](C)NC(=O)[C@@H](N)CCCCN)C(=O)N[C@@H](CCCCN)C(=O)N[C@@H](CCCCN)C(=O)N[C@@H](C)C(=O)N[C@@H](C)C(=O)N[C@@H](CCCCN)C(=O)N[C@@H](Cc1c[nH]c2ccccc12)C(=O)N[C@@H](C)C(=O)N[C@@H](CCCCN)C(=O)O [KA W7,16] (H-KAAKKAWKAAKKAAKWAK-OH; N-terminus and C-terminus assumed) |  |  |  | IC50 ([1]; 4 h): > 222 µM; IC50 [2]: > 222 µM; EC50 (human red blood cells; red cells of human): > 444 µM
CSCC[C@H](NC(=O)[C@H](CCCNC(=N)N)NC(=O)[C@H](Cc1c[nH]c2ccccc12)NC(=O)[C@H](C)NC(=O)[C@H](Cc1c[nH]c2ccccc12)NC(=O)[C@H](CCCNC(=N)N)NC(=O)[C@H](Cc1ccccc1)NC(=O)[C@H](C)NC(=O)[C@H](CCCCN)NC(=O)[C@H](CCCNC(=N)N)NC(=O)[C@H](C)NC(=O)[C@H](C)NC(=O)[C@@H]1CCCN1)C(=O)N[C@@H](CC(C)C)C(=O)N[C@@H](CCCCN)C(=O)N[C@@H](CCCCN)C(=O)N[C@@H](C)C(=O)N[C@@H](C)C(=O)O [W3→A3, LFB 14-31A2,3,6,10,17F7K16L14R4] (H-PAARKAFRWAWRMLKKAA-OH) |  |  |  | toxicity to fibroblasts [2]: little toxicity against fibroblasts; Mic S. Aureus ([3]; ATCC 25923): 4.6 µM; Mic E-coli ([4]; ATCC 25922): 6.9 µM
CC[C@H](C)[C@H](NC(=O)[C@H](C)NC(=O)[C@@H]1CCCN1)C(=O)N[C@@H](CCCNC(=N)N)C(=O)N[C@@H](CCCCN)C(=O)N[C@@H](C)C(=O)N[C@@H](Cc1ccccc1)C(=O)N[C@@H](CCCNC(=N)N)C(=O)N[C@@H](Cc1c[nH]c2ccccc12)C(=O)N[C@@H](C)C(=O)N[C@@H](Cc1c[nH]c2ccccc12)C(=O)N[C@@H](CCCNC(=N)N)C(=O)N[C@@H](CCSC)C(=O)N[C@@H](CC(C)C)C(=O)N[C@@H](CCCCN)C(=O)N[C@@H](CCCCN)C(=O)N[C@@H](C)C(=O)N[C@@H](C)C(=O)O [W3→I3] (H-PAIRKAFRWAWRMLKKAA-OH; N-terminus and C-terminus assumed) |  |  |  | Mic S. Aureus ([3]; Table 2): 2/4; Mic E-coli ([4]; Table 2): 2/4
CSCC[C@H](NC(=O)[C@H](CCCNC(=N)N)NC(=O)[C@H](C)NC(=O)[C@H](C)NC(=O)[C@H](C)NC(=O)[C@H](CCCNC(=N)N)NC(=O)[C@H](Cc1ccccc1)NC(=O)[C@H](C)NC(=O)[C@H](CCCCN)NC(=O)[C@H](CCCNC(=N)N)NC(=O)[C@H](Cc1c[nH]c2ccccc12)NC(=O)[C@H](C)NC(=O)[C@@H]1CCCN1)C(=O)N[C@@H](CC(C)C)C(=O)N[C@@H](CCCCN)C(=O)N[C@@H](CCCCN)C(=O)N[C@@H](C)C(=O)N[C@@H](C)C(=O)O [W9,11→A9,11, LFB 14-31A2,6,9,10,11,17F7K16L14R4] (H-PAWRKAFRAAARMLKKAA-OH) |  |  |  | IC50 ([1]; 4 h): 110 µM; IC50 [2]: > 489 µM; toxicity to fibroblasts [2]: no cytotoxic activity; cytotoxic / hemolytic activity against red blood cells (human red blood cells): no cytotoxic activity; EC50 (human red blood cells; red cells of human): > 489 µM; Mic S. Aureus ([3]; ATCC 25923): 14.7 µM; Mic E-coli ([4]; ATCC 25922): 14.7 µM
CSCC[C@H](NC(=O)[C@H](CCCNC(=N)N)NC(=O)[C@H](Cc1c[nH]c2ccccc12)NC(=O)[C@H](C)NC(=O)[C@H](C)NC(=O)[C@H](CCCNC(=N)N)NC(=O)[C@H](Cc1ccccc1)NC(=O)[C@H](C)NC(=O)[C@H](CCCCN)NC(=O)[C@H](CCCNC(=N)N)NC(=O)[C@H](Cc1c[nH]c2ccccc12)NC(=O)[C@H](C)NC(=O)[C@@H]1CCCN1)C(=O)N[C@@H](CC(C)C)C(=O)N[C@@H](CCCCN)C(=O)N[C@@H](CCCCN)C(=O)N[C@@H](C)C(=O)N[C@@H](C)C(=O)O [W9→A9, LFB 14-31A2,6,9,10,17F7K16L14R4] (H-PAWRKAFRAAWRMLKKAA-OH; N-terminus and C-terminus assumed) |  |  |  | Mic S. Aureus ([3]; ATCC 25923): 2.4 µM; Mic E-coli ([4]; ATCC 25922): 4.6 µM
CSCC[C@H](NC(=O)[C@H](CCCNC(=N)N)NC(=O)[C@H](C)NC(=O)[C@H](C)NC(=O)[C@H](Cc1c[nH]c2ccccc12)NC(=O)[C@H](CCCNC(=N)N)NC(=O)[C@H](Cc1ccccc1)NC(=O)[C@H](C)NC(=O)[C@H](CCCCN)NC(=O)[C@H](CCCNC(=N)N)NC(=O)[C@H](Cc1c[nH]c2ccccc12)NC(=O)[C@H](C)NC(=O)[C@@H]1CCCN1)C(=O)N[C@@H](CC(C)C)C(=O)N[C@@H](CCCCN)C(=O)N[C@@H](CCCCN)C(=O)N[C@@H](C)C(=O)N[C@@H](C)C(=O)O [W11→A11, LFB 14-31A2,6,10,11,17F7K16L14R4] (H-PAWRKAFRWAARMLKKAA-OH; N-terminus and C-terminus assumed) |  |  |  | fold decrease in activity against Meth A compared to LFB(14-31)m [1]: 1.5 fold; IC50 ([1]; 4 h): 11 µM; Mic S. Aureus ([3]; ATCC 25923): >1.2 µM; Mic E-coli ([4]; ATCC 25922): 4.6 µM
CC[C@H](C)[C@H](NC(=O)[C@H](C)NC(=O)[C@H](Cc1c[nH]c2ccccc12)NC(=O)[C@H](CCCNC(=N)N)NC(=O)[C@H](Cc1ccccc1)NC(=O)[C@H](C)NC(=O)[C@H](CCCCN)NC(=O)[C@H](CCCNC(=N)N)NC(=O)[C@H](Cc1c[nH]c2ccccc12)NC(=O)[C@H](C)NC(=O)[C@@H]1CCCN1)C(=O)N[C@@H](CCCNC(=N)N)C(=O)N[C@@H](CCSC)C(=O)N[C@@H](CC(C)C)C(=O)N[C@@H](CCCCN)C(=O)N[C@@H](CCCCN)C(=O)N[C@@H](C)C(=O)N[C@@H](C)C(=O)O [W11→I11] (H-PAWRKAFRWAIRMLKKAA-OH; N-terminus and C-terminus assumed) |  |  |  | IC50 ([1]; 4 h): 6 µM; EC50 (human red blood cells; red cells of human): 63.6 µM; Mic E-coli ([4]; Table 2): ⅖
(KAAKKAA)3 Bip9,16 [KA27] | 24 | > 429 | > 429 | 
(KAAKKAA)3 F2,9,16,20 [KA17] | 37 | > 429 | > 429 | 
(KAAKKAA)3 W2,3,20 [KA15] | 16 | 246 | > 422 | 
(KAAKKAA)3 W2,3,20,21 [KA19] | 19 | 374 | > 402 | 
(KAAKKAA)3 W2,9,16 [KA 5] | 15 | 302 | > 422 | 
(KAAKKAA)3 W2,9,16,20 [KA 8] | 4 | 23 | > 402 | 
(KAAKKAA)3 W6,10,17 [KA 31] | 147 | > 422 | > 422 | 
(KAAKKAA)3 W7,9,14,16 [KA 4] | 5 | 30 | > 402 | 
(KAAKKAA)3 W7,9,16 [KA 32] | 28 | > 422 | > 422 | 
(KAAKKAA)3 W7,10,17 [KA23] | 110 | > 422 | > 422 | 
(KAAKKAA)3 W7,16,17 [KA24] | 29 | > 422 | > 422 | 
(KAAKKAA)3 W9,16 [KA 7] | > 222 | > 444 | > 444 | 
(OAAOOAA)3 W7,9,14,16 [KA14] | 5 | 60 | > 424 | 
KKAWKWAKKAWKWAKKA [KA18] | 8 | 115 | > 451 | 
KKWAKKAWKWAKKAW [KA22, 15-mer] | 30 | > 514 | > 514 | 
WKWAKKAAKWAWKAA [KA20, 15-mer] | 140 | 307 | > 546 | 
WKWAKKAWKWAKKAA [KA21, 15-mer] | 32 | > 530 | > 530 | 
